Experimental data as given in the supplement of paper PMC6045584.
± gives the standard deviation of the averaged measurements.

Experiments:
IMATINIB = compound: Cc1ccc(NC(=O)c2ccc(CN3CCN(C)CC3)cc2)cc1Nc1nccc(-c2cccnc2)n1 [IMATINIB]; experiment: surviving fraction relative to DMSO-only wells; higher = less growth inhibition; details: exposure time: 5 days
Method in brief: (§1)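 Surviving fraction is CellTiter-Glo luminescence divided by the median of wells given DMSO only. For this, log-phase tumour cell lines went into 384-well plates at 250–500 cells per well and, 24 hours later, into five days of continuous inhibitor exposure at 0.5, 1, 5, 10, 50, 100, 500 and 1000 nM. Lines were screened three times and retained only if replicate Pearson r >0.7 and median Z' >0.3.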

AFIMOXIFENE [1] = compound: T1, CC/C(=C(\c1ccc(O)cc1)c1ccc(OCCN(C)C)cc1)c1ccccc1 [AFIMOXIFENE]; experiment: as above; details: exposure time: 5 days
Method in brief: as §1

MK-1775 = compound: C=CCn1c(=O)c2cnc(Nc3ccc(N4CCN(C)CC4)cc3)nc2n1-c1cccc(C(C)(C)O)n1 [MK-1775]; experiment: area under dose-response curve of surviving fraction (unscaled, Aref=0) (surviving fraction x log10(nM)); higher = more resistant; details: exposure time: 5 days; dose range 0.5-1000 nM
Method in brief: (§2)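 Surviving fractions were fitted by 3-parameter logistic regression in the drc R package to give dose-response survival curves. They came from tumour cell lines treated for five days with eight inhibitor concentrations from 0.5 to 1000 nM and read by CellTiter-Glo luminescence against DMSO-only wells. The area under the curve is the unscaled activity area. It was calculated over log10 dose with Aref = 0.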

CABOZANTINIB = compound: COc1cc2nccc(Oc3ccc(NC(=O)C4(C(=O)Nc5ccc(F)cc5)CC4)cc3)c2cc1OC [CABOZANTINIB]; experiment: as above; details: exposure time: 5 days; dose range 0.5-1000 nM
Method in brief: as §2

BLEOMYCIN = compound: Cc1c(N)nc([C@H](CC(N)=O)NC[C@H](N)C(N)=O)nc1C(=O)N[C@H](C(=O)N[C@H](C)[C@@H](O)[C@H](C)C(=O)N[C@H](C(=O)NCCc1nc(-c2nc(C(=O)NCCC[S+](C)C)cs2)cs1)[C@@H](C)O)[C@@H](OC1OC(CO)C(O)C(O)C1OC1OC(CO)C(O)C(OC(N)=O)C1O)c1cnc[nH]1 [BLEOMYCIN]; experiment: as above; details: exposure time: 5 days; dose range 0.5-1000 nM
Method in brief: as §2

AFIMOXIFENE [2] = compound: T1, AFIMOXIFENE; experiment: as above; details: exposure time: 5 days; dose range 0.5-1000 nM
Method in brief: as §2

Test System | surviving fraction (IMATINIB; 0.5 nM) | surviving fraction (IMATINIB; 1 nM) | surviving fraction (IMATINIB; 5 nM) | surviving fraction (IMATINIB; 10 nM) | surviving fraction (IMATINIB; 50 nM) | surviving fraction (IMATINIB; 100 nM) | surviving fraction (AFIMOXIFENE [1]; 0.5 nM) | surviving fraction (AFIMOXIFENE [1]; 1 nM) | surviving fraction (AFIMOXIFENE [1]; 5 nM) | surviving fraction (AFIMOXIFENE [1]; 10 nM) | surviving fraction (AFIMOXIFENE [1]; 50 nM) | surviving fraction (AFIMOXIFENE [1]; 100 nM) | surviving fraction (AFIMOXIFENE [1]; 500 nM) | surviving fraction (AFIMOXIFENE [1]; 1000 nM) | area under dose-response curve (MK-1775) | area under dose-response curve (CABOZANTINIB) | area under dose-response curve (BLEOMYCIN) | area under dose-response curve (AFIMOXIFENE [2]) | surviving fraction (IMATINIB; 1000 nM) | surviving fraction (IMATINIB; 500 nM)
OS25HAL BONE | 1.08 ± 0.041 | 1.04 ± 0.035 | 1.03 ± 0.021 | 1.06 ± 0.027 | 1.08 ± 0.013 | 1.1 ± 0.017 | 1.02 ± 0.036 | 1.04 ± 0.029 | 1.04 ± 0.014 | 1.02 ± 0.051 | 1.18 ± 0.044 | 1.09 ± 0.021 | 1.04 ± 0.084 | 1.04 ± 0.043 | 2.36 | 3.05 | 2.85 | 3.51 | – | –
OSHN BONE | 1.13 ± 0.024 | 1.126 ± 0.0095 | 1.1 ± 0.033 | 1.12 ± 0.012 | 1.16 ± 0.013 | 1.14 ± 0.017 | 1.09 ± 0.044 | 1.08 ± 0.023 | 1.1 ± 0.035 | 1.07 ± 0.034 | 1.12 ± 0.016 | 1.146 ± 0.0071 | 1.15 ± 0.016 | 1.1 ± 0.031 | 2.85 | 3.22 | 2.72 | 3.65 | 1.1 ± 0.051 | –
PCI30 HEADNECK | – | 0.943 ± 0.017 | – | 1.08 ± 0.11 | 1.13 ± 0.042 | 1.13 ± 0.024 | 1.09 ± 0.017 | 1.07 ± 0.062 | 1.07 ± 0.06 | 1.06 ± 0.023 | 1.12 ± 0.045 | 1.05 ± 0.022 | 0.99 ± 0.091 | 1.02 ± 0.032 | 2.58 | 3.08 | 2.41 | 3.49 | 0.981 ± 0.038 | 1.06 ± 0.067
RDES SOFT TISSUE | 1.37 ± 0.084 | 1.45 ± 0.048 | 1.21 ± 0.1 | 1.22 ± 0.019 | 1.12 ± 0.1 | 1.21 ± 0.1 | 1.25 ± 0.09 | 1.16 ± 0.052 | 1.16 ± 0.034 | 1.14 ± 0.095 | 1.14 ± 0.14 | 1.15 ± 0.062 | 1.59 ± 0.34 | 0.955 ± 0.11 | 2.98 | 3.82 | 2.68 | 3.94 | 1.18 ± 0.082 | 1.24 ± 0.13
S68 BREAST | 0.783 ± 0.22 | 0.996 ± 0.18 | 1.13 ± 0.17 | – | 1.25 ± 0.47 | 1.28 ± 0.29 | 0.947 ± 0.19 | 0.829 ± 0.24 | 1.08 ± 0.052 | 0.952 ± 0.18 | 1.39 ± 0.13 | 1.21 ± 0.11 | 0.916 ± 0.047 | 0.805 ± 0.065 | 2.17 | 3.55 | 2.99 | 3.23 | 0.868 ± 0.081 | 1.11 ± 0.28
SCC47 HEADNECK | 1.12 ± 0.017 | 1.2 ± 0.065 | 1.18 ± 0.072 | 1.19 ± 0.013 | 1.19 ± 0.025 | 1.25 ± 0.1 | 1.26 ± 0.02 | 1.2 ± 0.038 | 1.31 ± 0.11 | 1.27 ± 0.13 | 1.31 ± 0.085 | 1.29 ± 0.12 | 1.24 ± 0.047 | 1.2 ± 0.055 | 2.55 | 3.26 | 2.59 | 4.16 | 1.21 ± 0.028 | 1.22 ± 0.11
SG31 HEADNECK | 1.16 ± 0.19 | 1.33 ± 0.14 | 1.36 ± 0.36 | 1.16 ± 0.33 | 1.07 ± 0.1 | 0.994 ± 0.022 | 1.4 ± 0.15 | 1.21 ± 0.07 | 1.18 ± 0.16 | 1.06 ± 0.095 | 1.07 ± 0.15 | 1.09 ± 0.051 | 1.08 ± 0.099 | – | 2.93 | 3.45 | 2.62 | 3.88 | 1.18 ± 0.16 | 1.33 ± 0.21
SKBR3 BREAST | 1.02 ± 0.2 | 1.09 ± 0.09 | – | 1.11 ± 0.14 | 1.09 ± 0.081 | 1.16 ± 0.063 | 1.16 ± 0.077 | 1.1 ± 0.16 | 1.16 ± 0.11 | 1.12 ± 0.16 | 1.17 ± 0.13 | 1.06 ± 0.19 | 1.16 ± 0.12 | 0.923 ± 0.12 | 2.64 | 3.38 | 2.72 | 3.71 | 1.07 ± 0.15 | 1.24 ± 0.15
SUM149 BREAST | 1.04 ± 0.08 | 1.11 ± 0.047 | 1.07 ± 0.079 | 1.08 ± 0.072 | – | 0.951 ± 0.07 | 1.12 ± 0.094 | 1.02 ± 0.1 | 1.03 ± 0.078 | 1.03 ± 0.14 | 0.861 ± 0.031 | 0.911 ± 0.076 | 1.01 ± 0.11 | 0.868 ± 0.032 | 2.21 | 3.18 | 1.44 | 3.16 | 1.01 ± 0.046 | 0.866 ± 0.045
SUM149.B1*.S BREAST | 1.12 ± 0.041 | 1.11 ± 0.036 | 1.15 ± 0.04 | 1.19 ± 0.035 | 1.19 ± 0.039 | 1.15 ± 0.038 | 1.17 ± 0.043 | 1.1 ± 0.022 | 1.14 ± 0.065 | 1.16 ± 0.087 | 1.18 ± 0.051 | 1.16 ± 0.099 | 1.14 ± 0.07 | 1.2 ± 0.034 | 2.74 | 3.39 | 2.89 | 3.8 | 1.18 ± 0.061 | 1.19 ± 0.051
SUM159 BREAST | – | 1.11 ± 0.015 | 1.11 ± 0.024 | 1.101 ± 0.0045 | 1.126 ± 0.009 | – | 1.12 ± 0.024 | 1.12 ± 0.028 | 1.12 ± 0.026 | 1.11 ± 0.013 | 1.09 ± 0.025 | 1.13 ± 0.023 | 1.114 ± 0.01 | 1.06 ± 0.016 | 3.08 | 3.29 | 3.01 | 3.67 | – | 1.14 ± 0.02
SYO1 SYNOVIAL | 1.03 ± 0.05 | 1.02 ± 0.028 | 0.987 ± 0.037 | 0.955 ± 0.031 | 0.921 ± 0.035 | 0.898 ± 0.017 | 0.993 ± 0.023 | 1.01 ± 0.04 | 1.04 ± 0.013 | 1.03 ± 0.072 | 0.954 ± 0.035 | 0.982 ± 0.028 | 0.939 ± 0.023 | 1.04 ± 0.087 | 2.27 | 2.68 | 1.65 | 3.24 | 0.888 ± 0.023 | 0.88 ± 0.056
T47D BREAST | 1.08 ± 0.042 | 1.05 ± 0.016 | 1.1 ± 0.02 | 1.05 ± 0.066 | 1.13 ± 0.027 | 1.08 ± 0.036 | 1.06 ± 0.052 | 1.11 ± 0.032 | 0.955 ± 0.0067 | 0.98 ± 0.048 | 0.95 ± 0.032 | 0.958 ± 0.034 | 0.888 ± 0.024 | 0.883 ± 0.037 | 2.97 | 3.4 | 2.92 | 3.17 | 1.07 ± 0.056 | 1.1 ± 0.068
U2OS BONE | 1.06 ± 0.021 | 1.02 ± 0.033 | 1.07 ± 0.028 | 1.05 ± 0.028 | 1.09 ± 0.026 | 1.113 ± 0.0058 | 1.06 ± 0.056 | 1.07 ± 0.035 | 1.08 ± 0.024 | 1.1 ± 0.022 | 1.12 ± 0.015 | 1.1 ± 0.017 | 1.08 ± 0.057 | 1.01 ± 0.021 | 2.46 | 3.26 | 3.02 | 3.56 | 1.15 ± 0.018 | 1.15 ± 0.027
VCAP PROSTATE | 1.11 ± 0.19 | 0.949 ± 0.15 | – | 1.17 ± 0.035 | 1.22 ± 0.12 | 1.12 ± 0.13 | 0.993 ± 0.093 | 1.06 ± 0.1 | 1.07 ± 0.065 | 1.11 ± 0.098 | 1.12 ± 0.11 | 1.09 ± 0.019 | 1.07 ± 0.17 | 0.941 ± 0.075 | 2.4 | 3.28 | 3.21 | 3.49 | 1.05 ± 0.086 | –
VP229 BREAST | 1.29 ± 0.17 | 1.22 ± 0.091 | 1.12 ± 0.098 | 1.2 ± 0.3 | 1.35 ± 0.1 | – | 1.25 ± 0.37 | 1.2 ± 0.13 | 1.09 ± 0.08 | 1.16 ± 0.13 | 1.14 ± 0.07 | 1.16 ± 0.061 | 0.989 ± 0.21 | 1 ± 0.13 | 2.75 | 3.43 | 2.61 | 3.71 | 1.27 ± 0.12 | 1.16 ± 0.064
